Data taken from patent publication US11142515B2, “Pyrazolyl-ureas as kinase inhibitors” (RESPIVERT LIMITED, priority 2014, dated 2021).

Columns and labels:
[1] = molecular target: T1, p38 MAPKα isoform (MAPK14) (Homo sapiens, UniProt Q16539); test: p38 MAPKα enzyme inhibition (Z-LYTE FRET); format: biochemical; conditions: Table 2B, unit inferred; read-out: p38 MAPKα (Enzyme Profile)
T1 construct: purchased Life Technologies
Procedure, shortened: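 Activity was measured indirectly as phosphorylation of a MAPKAP-K2-derived FRET peptide. Enzyme (added at 40 ng/mL) was preincubated 2 h at RT with compound (added solutions 40–0.0012 μg/mL).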

p38MAPKγ (MAPK12) = molecular target: T2, p38MAPKγ (MAPK12) (Homo sapiens, UniProt P53778); test: p38 MAPKγ enzyme inhibition (Z-LYTE FRET); format: biochemical; conditions: Table 2B, unit inferred; read-out: p38 MAPKγ (Enzyme Profile)
T2 construct: purchased Life Technologies
T2 sequence (P53778 1-367): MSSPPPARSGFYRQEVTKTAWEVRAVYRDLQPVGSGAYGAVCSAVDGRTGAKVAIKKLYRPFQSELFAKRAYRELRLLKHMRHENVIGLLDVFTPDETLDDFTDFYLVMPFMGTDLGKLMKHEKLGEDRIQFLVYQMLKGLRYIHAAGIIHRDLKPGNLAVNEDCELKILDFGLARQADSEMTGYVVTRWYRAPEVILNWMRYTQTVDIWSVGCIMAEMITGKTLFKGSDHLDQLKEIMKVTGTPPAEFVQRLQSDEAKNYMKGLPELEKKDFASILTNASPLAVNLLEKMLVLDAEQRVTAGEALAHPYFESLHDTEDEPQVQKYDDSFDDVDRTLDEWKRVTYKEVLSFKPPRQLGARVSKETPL
Procedure, shortened: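 Enzyme (added at 800 ng/mL) was preincubated 2 h at RT with compound (solutions of 40 to 0.0012 μg/mL), then FRET peptide (8 μM) and ATP (400 μM), both as added, were reacted 1 h at RT. Protease development followed for 1 h; phosphorylation was read as the coumarin/fluorescein emission ratio.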

T1 sequence (Q16539 whole entry, canonical isoform): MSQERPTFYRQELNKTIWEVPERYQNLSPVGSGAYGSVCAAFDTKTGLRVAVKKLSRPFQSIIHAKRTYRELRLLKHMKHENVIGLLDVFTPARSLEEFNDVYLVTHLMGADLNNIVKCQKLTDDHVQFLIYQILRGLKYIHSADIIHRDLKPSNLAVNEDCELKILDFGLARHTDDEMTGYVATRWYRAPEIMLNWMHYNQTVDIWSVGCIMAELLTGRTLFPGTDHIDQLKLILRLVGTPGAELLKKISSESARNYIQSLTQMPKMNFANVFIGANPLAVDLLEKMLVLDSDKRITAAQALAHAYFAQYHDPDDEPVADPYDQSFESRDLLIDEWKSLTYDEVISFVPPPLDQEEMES

Compound	IC50 [1] [µM]	IC50 (p38MAPKγ (MAPK12)) [µM]
COCC1CN(C(=O)c2cnc(Nc3cc(COc4ccc(NC(=O)Nc5cc(C(C)(C)C)nn5-c5ccc(C)cc5)c5ccccc45)ccn3)cn2)C1 [Example 225, 1-(3-(tert-butyl)-1-(p-tolyl)-1H-pyrazol-5-yl)-3-(4-((2-((5-(3-(methoxymethyl)azetidine-l-carbonyl)pyrazin-2-yl)amino)pyridin-4-yl)methoxy)naphthalen-1-yl)urea]	0.014	0.342
CN(C)Cc1cccc(-n2nc(C(C)(C)C)cc2NC(=O)Nc2ccc(OCc3ccnc(Nc4cnccn4)c3)c3ccccc23)c1 [Example 261, 1-(3-(tert-butyl)-1-(3-((dimethylamino)methyl)phenyl)-1H-pyrazol-5-yl)-3-(4-((2-(pyrazin-2-ylamino)pyridin-4-yl)methoxy)naphthalen-1-yl)urea]	< 0.00047	0.146
Cc1ccc(-n2nc(C(C)(C)C)cc2NC(=O)Nc2ccc(OCc3ccnc(Nc4cncc(CCO)n4)c3)c3ccccc23)cc1 [Example 171, 1-(3-(tert-butyl)-1-(p-tolyl)-1H-pyrazol-5-yl)-3-(4-((2-((6-(2-hydroxyethyl)pyrazin-2-yl)amino)pyridin-4-yl)methoxy)naphthalen-1-yl)urea]	0.012	0.049
COCC(=O)Nc1cncc(Nc2cc(COc3ccc(NC(=O)Nc4cc(C(C)(C)C)nn4-c4ccc(C)cc4)c4ccccc34)ccn2)n1 [Example 107, N-(6-((4-(((4-(3-(3-(tert-butyl)-1-(p-tolyl)-1H-pyrazol-5-yl)ureido)naphthalen-1-yl)oxy)methyl)pyridin-2-yl)amino)pyrazin-2-yl)-2-methoxyacetamide]	0.027	5.73
CCOc1ccc(-n2nc(C(C)(C)C)cc2NC(=O)Nc2ccc(OCc3ccnc(Nc4cnccn4)c3)c3ccccc23)cc1F [Example 183, 1-(3-(tert-butyl)-1-(4-ethoxy-3-fluorophenyl)-1H-pyrazol-5-yl)-3-(4-((2-(pyrazin-2-ylamino)pyridin-4-yl)methoxy)naphthalen-1-yl) urea]	0.038	> 15.5
Cc1ccc(-n2nc(C(C)(C)C)cc2NC(=O)Nc2ccc(OCc3ccnc(Nc4cnc(C(=O)N5CCC(F)CC5)cn4)c3)c3ccccc23)cc1 [Example 176, 1-(3-(tert-butyl)-1-(p-tolyl)-1H-pyrazol-5-yl)-3-(4-((2-((5-(4-fluoropiperidine-1-carbonyl)pyrazin-2-yl)amino)pyridin-4-yl)methoxy)naphthalen-1-yl)urea]	0.036	0.458
CCc1cncc(Nc2cc(COc3ccc(NC(=O)Nc4cc(C(C)(C)C)nn4-c4ccc(OC)c(C)c4)c4ccccc34)ccn2)n1 [Example 140, 1-(3-(tert-butyl)-1-(4-methoxy-3-methylphenyl)-1H-pyrazol-5-yl)-3-(4-((2-((6-ethylpyrazin-2-yl)amino)pyridin-4-yl)methoxy)naphthalen-1-yl)urea]	0.029	> 15.2
COc1cccc(-n2nc(C(C)(C)C)cc2NC(=O)Nc2ccc(OCc3ccnc(Nc4cnc(C)c(C)n4)c3)c3ccccc23)c1 [Example 170, 1-(3-(tert-butyl)-1-(3-methoxyphenyl)-1H-pyrazol-5-yl)-3-(4-((2-((5,6-dimethylpyrazin-2-yl)amino)pyridin-4-yl)methoxy)naphthalen-1-yl)urea]	0.035	0.329
Cc1cc(F)cc(-n2nc(C(C)(C)C)cc2NC(=O)Nc2ccc(OCc3ccnc(Nc4cnccn4)c3)c3ccccc23)c1 [Example 181, 1-(3-(tert-butyl)-1-(3-fluoro-5-methylphenyl)-1H-pyrazol-5-yl)-3-(4-((2-(pyrazin-2-ylamino)pyridin-4-yl)methoxy)naphthalen-1-yl)urea]	0.015	0.064
CN(C)c1cncc(Nc2cc(COc3ccc(NC(=O)Nc4cc(C(C)(C)C)nn4-c4ccc(O)cc4)c4ccccc34)ccn2)n1 [Example 115, 1-(3-(tert-butyl)-1-(4-hydroxyphenyl)-1H-pyrazol-5-yl)-3-(4-((2-((6-(dimethyl-amino)pyrazin-2-yl)amino)pyridin-4-yl)methoxy)naphthalen-1-yl)urea]	0.0075	0.725
CNc1cncc(Nc2cc(COc3ccc(NC(=O)Nc4cc(C(C)(C)C)nn4-c4ccc(C)cc4)c4ccccc34)ccn2)n1 [Example 120, 1-(3-(tert-butyl)-1-(p-tolyl)-1H-pyrazol-5-yl)-3-(4-((2-((6-(methylamino)pyrazin-2-yl)amino)pyridin-4-yl)methoxy)naphthalen-1-yl) urea]	0.0048	0.173
COCCN(C)C(=O)c1cnc(Nc2cc(COc3ccc(NC(=O)Nc4cc(C(C)(C)C)nn4-c4cccc(C)c4)c4ccccc34)ccn2)cn1 [Example 205, 5-((4-(((4-(3-(3-(tert-butyl)-1-(m-tolyl)-1H-pyrazol-5-yl)ureido)naphthalen-1-yl)oxy)methyl)pyridin-2-yl)amino)-N-(2-methoxyethyl)-N-methylpyrazine-2-carboxamide]	0.013	0.263
CCCc1cncc(Nc2cc(COc3ccc(NC(=O)Nc4cc(C(C)(C)C)nn4-c4ccc(C)c(F)c4)c4ccccc34)ccn2)n1 [Example 194, 1-(3-(tert-butyl)-1-(3-fluoro-4-methylphenyl)-1H-pyrazol-5-yl)-3-(4-((2-((6-propyl-pyrazin-2-yl)amino)pyridin-4-yl)methoxy)naphthalen-1-yl)urea]	0.207	8.41
COCCNC(=O)c1cnc(Nc2cc(COc3ccc(NC(=O)Nc4cc(C(C)(C)C)nn4-c4cccc(C)c4)c4ccccc34)ccn2)cn1 [Example 152, 5-((4-(((4-(3-(3-(tert-butyl)-1-(m-tolyl)-1H-pyrazol-5-yl)ureido)naphthalen-1-yl)oxy)methyl)pyridin-2-yl)amino)-N-(2-methoxyethyl) pyrazine-2-carboxamide]	0.014	0.24
COC1CCN(C(=O)c2cnc(Nc3cc(COc4ccc(NC(=O)Nc5cc(C(C)(C)C)nn5-c5ccc(C)cc5)c5ccccc45)ccn3)cn2)CC1 [Example 56]	0.021	0.262
Cc1ccc(-n2nc(C(C)(C)C)cc2NC(=O)Nc2ccc(OCc3ccnc(Nc4cnc(C)c(C5CC5)n4)c3)c3ccccc23)cc1 [Example 150, 1-(3-(tert-butyl)-1-(p-tolyl)-1H-pyrazol-5-yl)-3-(4-((2-((6-cyclopropyl-5-methyl-pyrazin-2-yl)amino)pyridin-4-yl)methoxy)naphthalen-1-yl)urea]	0.025	0.229
Cc1ccc(-n2nc(C(C)(C)C)cc2NC(=O)Nc2ccc(OCc3ccnc(Nc4cnc(C(=O)N5CCCCC5)cn4)c3)c3ccccc23)cc1 [Example 137, 1-(3-(tert-butyl)-1-(p-tolyl)-1H-pyrazol-5-yl)-3-(4-((2-((5-(piperidine-1-carbonyl)pyrazin-2-yl)amino)pyridin-4-yl)methoxy)naphthalen-1-yl)urea]	0.006	> 14.1
CO[C@@H]1CCCN(C(=O)c2cnc(Nc3cc(COc4ccc(NC(=O)Nc5cc(C(C)(C)C)nn5-c5ccc(C)cc5)c5ccccc45)ccn3)cn2)C1 [Example 239, (R)-1-(3-(tert-butyl)-1-(p-tolyl)-1H-pyrazol-5-yl)-3-(4-((2-((5-(3-methoxy-piperidine-1-carbonyl)pyrazin-2-yl)amino)pyridin-4-yl)methoxy)naphthalen-1-yl)urea]	0.014	0.13
CCc1cccc(-n2nc(C(C)(C)C)cc2NC(=O)Nc2ccc(OCc3ccnc(Nc4cncc(CC)n4)c3)c3ccccc23)c1 [Example 234, 1-(3-(tert-butyl)-1-(3-ethyl-phenyl)-1H-pyrazol-5-yl)-3-(4-((2-((6-ethylpyrazin-2-yl)amino)pyridin-4-yl)methoxy)naphthalen-1-yl)urea]	0.064	> 15.6
Cc1ccc(-n2nc(C(C)(C)C)cc2NC(=O)Nc2ccc(OCc3ccnc(Nc4cnc(C(=O)NCCOC(C)(C)C)cn4)c3)c3ccccc23)cc1 [Example 125, N-(2-(tert-butoxy)ethyl)-5-((4-(((4-(3-(3-(tert-butyl)-1-(p-tolyl)-1H-pyrazol-5-yl)ureido)naphthalen-1-yl)oxy)methyl)pyridin-2-yl)amino)pyrazine-2-carboxamide]	0.302	> 13.5
CCc1ncc(Nc2cc(COc3ccc(NC(=O)Nc4cc(C(C)(C)C)nn4-c4ccc(C)cc4)c4ccccc34)ccn2)nc1CC [Example 139, 1-(3-(tert-butyl)-1-(p-tolyl)-1H-pyrazol-5-yl)-3-(4-((2-((5,6-diethylpyrazin-2-yl)amino)pyridin-4-yl)methoxy)naphthalen-1-yl) urea]	0.053	1.11
CCOc1ccc(-n2nc(C(C)(C)C)cc2NC(=O)Nc2ccc(OCc3ccnc(Nc4cnccn4)c3)c3ccccc23)cc1C [Example 197, 1-(3-(tert-butyl)-1-(4-ethoxy-3-methylphenyl)-1H-pyrazol-5-yl)-3-(4-((2-(pyrazin-2-ylamino)pyridin-4-yl)methoxy)naphthalen-1-yl)urea]	0.037	> 15.6
